# Reference: patent US20080200492A1, “METHODS FOR THE TREATMENT OF ALCOHOL ABUSE, ADDICTION AND DEPENDENCY” (priority 2006, published 2008)
# System: alcohol preferring rats
# Assay: Alcohol Preferring Rats, Study A: Chronic Administration (14 days)
# Assay type: in vivo, rat
# Description: Adult male selectively-bred alcohol preferring rats were used in this study. The selectively bred alcohol preferring rats are widely used to study the suppressant effects of compounds on voluntary alcohol intake (Faren et al. 2000; Rezvani et al, 1990, 1991, 1992a, 1992b, 1999, 2000, 2002; 2003; Murphy et al, 1988; Overstreet et al., 1992, 1999; Li and McBride, 1995).
# The rats were housed individually under a constant room temperature of 22±1° C. and 12:12 light-dark cycle (7:00-19:00, dark). Animals were fed Agway Prolab Rat/Mouse/Hamster 3000 formula and water ad libitum.
# Alcohol intake was determined using a standard two-bottle choice method (Murphy et al. 1988; McBride et al. 1990; Rezvani et al. 1990, 1991, 1993, 1995, 1997, Rezvani et al., 2007a,b; Rezvani and Grady, 1994). Animals were first given free access to water in a graduated Richter tube for 1 day. Next, they were given access to only a solution of 10% (v/v) ethanol for 3 consecutive days. During this period the animals became accustomed to drinking from Richter tubes and to the taste and pharmacological effects of alcohol. Thereafter, the animals were given free access to both water and a solution of 10% alcohol for 4 consecutive weeks and throughout of the study. The animals continued to have free access to food. Water and alcohol intake were recorded at 6 and 24 hour.
# After establishment of a reliable baseline for alcohol, and water intake, the animals were randomly assigned to a treatment regimen. The animals were administered once a day, via gavage, either vehicle (0.5% methylcellulose) or compound of formula (I-A) (at 30 mg/kg) or naltrexone (at 20 mg/kg) for 14 consecutive days. A group of 6-7 animals was used for each treatment. Alcohol and water intake was recorded at 6 hrs and 24 hrs after administration.
# The results are presented as a means ±SEM. Alcohol intake (g/kg) was calculated by multiplying the volume of alcohol consumed in ml by 10% and 0.7893 (ethanol density)/body weight in kg. Alcohol preference, expressed as percentage was calculated as (volume of alcohol consumed in ml/total fluid intake in ml)×100 (Rezvani and Grady, 1994; Rezvani et al., 2007a). Statistical differences between drug-treated and control groups was determined by using ANOVA and Tukey Student's t test for multiple comparison.
# The results from Study A provide a measure of whether or not the animals develop tolerance to the suppressant effects of the test compound following a chronic treatment. In Tables 5-8 below, the abbreviation “(I-A)” stands for the compound of formula (I-A), the abbreviation “Naltx” stands for naltrexone, and the abbreviation “EtOH” stands for ethanol.
# [1] = 30 mg/kg once a day, gavage, Day 1, 6 Hour Intake
# [2] = 30 mg/kg once a day, gavage, Day 1, 24 Hour Intake
# [3] = 30 mg/kg once a day, gavage, Day 2, 6 Hour Intake
# [4] = 30 mg/kg once a day, gavage, Day 2, 24 Hour Intake
# [5] = 30 mg/kg once a day, gavage, Day 3, 6 Hour Intake
# [6] = 30 mg/kg once a day, gavage, Day 3, 24 Hour Intake
# [7] = 30 mg/kg once a day, gavage, Day 4, 6 Hour Intake
# [8] = 30 mg/kg once a day, gavage, Day 4, 24 Hour Intake
# [9] = 30 mg/kg once a day, gavage, Day 5, 6 Hour Intake
# [10] = 30 mg/kg once a day, gavage, Day 5, 24 Hour Intake
# [11] = 30 mg/kg once a day, gavage, Day 6, 6 Hour Intake
# [12] = 30 mg/kg once a day, gavage, Day 6, 24 Hour Intake
# [13] = 30 mg/kg once a day, gavage, Day 7, 6 Hour Intake
# [14] = 30 mg/kg once a day, gavage, Day 7, 24 Hour Intake
# [15] = 30 mg/kg once a day, gavage, Day 8, 6 Hour Intake
# [16] = 30 mg/kg once a day, gavage, Day 8, 24 Hour Intake
# [17] = 30 mg/kg once a day, gavage, Day 9, 6 Hour Intake
# [18] = 30 mg/kg once a day, gavage, Day 9, 24 Hour Intake
# [19] = 30 mg/kg once a day, gavage, Day 10, 6 Hour Intake
# [20] = 30 mg/kg once a day, gavage, Day 10, 24 Hour Intake
# [21] = 30 mg/kg once a day, gavage, Day 11, 6 Hour Intake
# [22] = 30 mg/kg once a day, gavage, Day 11, 24 Hour Intake
# [23] = 30 mg/kg once a day, gavage, Day 12, 6 Hour Intake
# [24] = 30 mg/kg once a day, gavage, Day 12, 24 Hour Intake
# [25] = 30 mg/kg once a day, gavage, Day 13, 6 Hour Intake
# [26] = 30 mg/kg once a day, gavage, Day 13, 24 Hour Intake
# [27] = 30 mg/kg once a day, gavage, Day 14, 6 Hour Intake
# [28] = 30 mg/kg once a day, gavage, Day 14, 24 Hour Intake
structure (smiles),measurement,setting,value
"O=C1CC[C@@]2(O)[C@H]3Cc4ccc(O)c5c4[C@@]2(CCN3CC2CC2)[C@H]1O5 [Naltrexone, naltrexone, reference compound]",Alcohol Preference,"20 mg/kg once a day, gavage, Day 1, 6 Hour Intake",64 % EtOH
same,Alcohol Preference,"20 mg/kg once a day, gavage, Day 1, 24 Hour Intake",65 % EtOH
same,Alcohol Preference,"20 mg/kg once a day, gavage, Day 2, 6 Hour Intake",67 % EtOH
same,Alcohol Preference,"20 mg/kg once a day, gavage, Day 2, 24 Hour Intake",68 % EtOH
same,Alcohol Preference,"20 mg/kg once a day, gavage, Day 3, 6 Hour Intake",70 % EtOH
same,Alcohol Preference,"20 mg/kg once a day, gavage, Day 3, 24 Hour Intake",68 % EtOH
same,Alcohol Preference,"20 mg/kg once a day, gavage, Day 4, 6 Hour Intake",80 % EtOH
same,Alcohol Preference,"20 mg/kg once a day, gavage, Day 4, 24 Hour Intake",77 % EtOH
same,Alcohol Preference,"20 mg/kg once a day, gavage, Day 5, 6 Hour Intake",81 % EtOH
same,Alcohol Preference,"20 mg/kg once a day, gavage, Day 5, 24 Hour Intake",79 % EtOH
same,Alcohol Preference,"20 mg/kg once a day, gavage, Day 6, 6 Hour Intake",86 % EtOH
same,Alcohol Preference,"20 mg/kg once a day, gavage, Day 6, 24 Hour Intake",72 % EtOH
same,Alcohol Preference,"20 mg/kg once a day, gavage, Day 7, 6 Hour Intake",88 % EtOH
same,Alcohol Preference,"20 mg/kg once a day, gavage, Day 7, 24 Hour Intake",84 % EtOH
same,Alcohol Preference,"20 mg/kg once a day, gavage, Day 8, 6 Hour Intake",88 % EtOH
same,Alcohol Preference,"20 mg/kg once a day, gavage, Day 8, 24 Hour Intake",85 % EtOH
same,Alcohol Preference,"20 mg/kg once a day, gavage, Day 9, 6 Hour Intake",89 % EtOH
same,Alcohol Preference,"20 mg/kg once a day, gavage, Day 9, 24 Hour Intake",89 % EtOH
same,Alcohol Preference,"20 mg/kg once a day, gavage, Day 10, 6 Hour Intake",91 % EtOH
same,Alcohol Preference,"20 mg/kg once a day, gavage, Day 10, 24 Hour Intake",85 % EtOH
same,Alcohol Preference,"20 mg/kg once a day, gavage, Day 11, 6 Hour Intake",99 % EtOH
same,Alcohol Preference,"20 mg/kg once a day, gavage, Day 11, 24 Hour Intake",99 % EtOH
same,Alcohol Preference,"20 mg/kg once a day, gavage, Day 12, 6 Hour Intake",95 % EtOH
same,Alcohol Preference,"20 mg/kg once a day, gavage, Day 12, 24 Hour Intake",97 % EtOH
same,Alcohol Preference,"20 mg/kg once a day, gavage, Day 13, 6 Hour Intake",90 % EtOH
same,Alcohol Preference,"20 mg/kg once a day, gavage, Day 13, 24 Hour Intake",95 % EtOH
same,Alcohol Preference,"20 mg/kg once a day, gavage, Day 14, 6 Hour Intake",92 % EtOH
same,Alcohol Preference,"20 mg/kg once a day, gavage, Day 14, 24 Hour Intake",89 % EtOH
"Cc1cccc2cccc(CN3CCC4(CC3)C(=O)N(C[C@H](O)CN)CN4c3ccc(F)cc3)c12 [Cmpd (I-A), 3-(3-amino-2-(R)-hydroxy-propyl)-1-(4-fluoro-phenyl)-8-(8-methyl-naphthalen-1-ylmethyl)-1,3,8-triazaspiro[4.5]decan-4-one]",Alcohol Intake,[1],1.31 g/kg
same,Alcohol Preference,[1],62 % EtOH
same,Alcohol Intake,[2],4.04 g/kg
same,Alcohol Preference,[2],72 % EtOH
same,Alcohol Intake,[3],1.54 g/kg
same,Alcohol Preference,[3],48 % EtOH
same,Alcohol Intake,[4],3.71 g/kg
same,Alcohol Preference,[4],56 % EtOH
same,Alcohol Intake,[5],1.71 g/kg
same,Alcohol Preference,[5],53 % EtOH
same,Alcohol Intake,[6],3.39 g/kg
same,Alcohol Preference,[6],54 % EtOH
same,Alcohol Intake,[7],1.24 g/kg
same,Alcohol Preference,[7],52 % EtOH
same,Alcohol Intake,[8],2.68 g/kg
same,Alcohol Preference,[8],50 % EtOH
same,Alcohol Intake,[9],1.54 g/kg
same,Alcohol Preference,[9],39 % EtOH
same,Alcohol Intake,[10],2.97 g/kg
same,Alcohol Preference,[10],47 % EtOH
same,Alcohol Intake,[11],1.04 g/kg
same,Alcohol Preference,[11],60 % EtOH
same,Alcohol Intake,[12],2.99 g/kg
same,Alcohol Preference,[12],59 % EtOH
same,Alcohol Intake,[13],1.34 g/kg
same,Alcohol Preference,[13],65 % EtOH
same,Alcohol Intake,[14],3.60 g/kg
same,Alcohol Preference,[14],76 % EtOH
same,Alcohol Intake,[15],1.63 g/kg
same,Alcohol Preference,[15],61 % EtOH
same,Alcohol Intake,[16],3.97 g/kg
same,Alcohol Preference,[16],70 % EtOH
same,Alcohol Intake,[17],1.84 g/kg
same,Alcohol Preference,[17],67 % EtOH
same,Alcohol Intake,[18],3.78 g/kg
same,Alcohol Preference,[18],68 % EtOH
same,Alcohol Intake,[19],1.38 g/kg
same,Alcohol Preference,[19],72 % EtOH
same,Alcohol Intake,[20],3.00 g/kg
same,Alcohol Preference,[20],73 % EtOH
same,Alcohol Intake,[21],1.17 g/kg
same,Alcohol Preference,[21],67 % EtOH
same,Alcohol Intake,[22],2.86 g/kg
same,Alcohol Preference,[22],81 % EtOH
same,Alcohol Intake,[23],1.07 g/kg
same,Alcohol Preference,[23],51 % EtOH
same,Alcohol Intake,[24],3.03 g/kg
same,Alcohol Preference,[24],69 % EtOH
same,Alcohol Intake,[25],0.96 g/kg
same,Alcohol Preference,[25],45 % EtOH
same,Alcohol Intake,[26],2.67 g/kg
same,Alcohol Preference,[26],67 % EtOH
same,Alcohol Intake,[27],0.55 g/kg
same,Alcohol Preference,[27],28 % EtOH
same,Alcohol Intake,[28],1.91 g/kg
same,Alcohol Preference,[28],45 % EtOH
same,Alcohol Intake,"30 mg/kg once a day, at 6 and 24 hours, over the course of 14 days",showed a decrease in alcohol intake
same,Tolerance to the alcohol reducing effects,"30 mg/kg once a day, over the 14 days of administration",did not develop tolerance
